Assay results published in US5972898A, “3',3-N-bis-substituted macrolide LHRH antagonists” (Abbott Laboratories, priority 1998, dated 1999).

Each compound was assayed against T1, LHRH rat pituitary receptor (Rattus norvegicus, UniProt P30969) (assay: LHRH rat pituitary receptor binding (pKI)). Settings: in vitro.
T1 construct: from tissue; host or cells: rat pituitary
T1 sequence (P30969 1-327): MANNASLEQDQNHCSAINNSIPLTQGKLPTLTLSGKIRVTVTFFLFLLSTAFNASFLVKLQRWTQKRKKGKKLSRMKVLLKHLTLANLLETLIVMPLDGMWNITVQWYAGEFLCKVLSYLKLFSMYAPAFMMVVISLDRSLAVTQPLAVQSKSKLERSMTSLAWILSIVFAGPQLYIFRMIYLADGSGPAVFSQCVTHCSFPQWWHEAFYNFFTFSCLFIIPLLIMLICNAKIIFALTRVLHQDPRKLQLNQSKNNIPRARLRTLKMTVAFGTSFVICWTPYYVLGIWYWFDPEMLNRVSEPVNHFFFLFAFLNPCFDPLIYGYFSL
Protocol: Representative compounds of the present invention were evaluated in in vitro tests for LHRH rat pituitary receptor binding (pKI) and for LH inhibition from rat pituitary cells for antagonist potency (pA2). […] The receptor binding affinity (pKI) is the negative equilibrium dissociation constants.
In the case of “3',3 -N-Bisdesmethyl-3'-N-cyclopropylmethyl-3'-N-4-hydroxymethyl-(2-furylmethyl-11-Deoxy-11-[carboxy-(3,4-dichlorophenethylamino)]-6-O-methyl-erythromycinA 11,12-(cyclic carbamate) [Example 21]”, the “pKI (receptor binding affinity)” value is reported as 8.34. In the case of “3',3'-N-Bisdesmethyl-3'-N-cyclopentyl-3'-N-cyclopropylmethyl-11-deoxy-11-[carboxy-(3-chloro-4-fluorophenethylamino)]-6-O-methyl-erythromycin A 11,12-(cyclic carbamate) [Example 16]”, the “pKI (receptor binding affinity)” value is reported as 8.87. “3',3'-N-Bisdesmethyl-3'-N-cyclopropylmethyl-3'-N-(2-furyl)methyl-11-deoxy-11-[carboxy-(3-chloro-4-fluorophenethylamino)]-6-O-methyl-erythromycin A 11,12-(cyclic carbamate) [Example 24]” was tested, and the “pKI (receptor binding affinity)” value was 8.00. With “3',3'-N-Bisdesmethyl-3'-N-cyclopropylmethyl-3'-N-(4hydroxymethyl-2-furyl)methyl-11-deoxy-11-[carboxy-(3-chloro-4-fluorophenethylamino)]-6-O-methyl-erythromycin A 11,12-(cyclic carbamate) [Example 23]” the “pKI (receptor binding affinity)” value was 8.98. “3',3'-N-Bisdesmethyl-3'-N-cyclopropylmethyl-3'-N-(6-methyl-2-pyridyl)methyl-11-deoxy-11-[carboxy-(3-chloro-4-fluorophenethylamino)]-6-O-methyl-erythromycin A 11,12-(cyclic carbamate) [Example 25]” was tested, and the “pKI (receptor binding affinity)” value was 8.58. In the case of `CC[C@H]1OC(=O)[C@H](C)[C@@H](O[C@H]2C[C@@](C)(OC)[C@@H](O)[C@H](C)O2)[C@H](C)[C@@H](O[C@@H]2O[C@H](C)C[C@H](N(CC3CC3)C(C)C)[C@H]2O)[C@](C)(OC)C[C@@H](C)C(=O)[C@H](C)[C@H]2N(CCc3ccc(Cl)cc3)C(=O)O[C@]12C` [Example 7, 3',3'-N-Bisdesmethyl-3'-N-cyclopropylmethyl-3'-N-isopropyl-11-deoxy-11-carboxy-(4-chlorophenethylamino)]-6-O-methyl-erythromycin A 11,12-(cyclic carbamate)], the “pKI (receptor binding affinity)” value is reported as 8.56. `CC[C@H]1OC(=O)[C@H](C)[C@@H](O[C@H]2C[C@@](C)(OC)[C@@H](O)[C@H](C)O2)[C@H](C)[C@@H](O[C@@H]2O[C@H](C)C[C@H](N(CC3CC3)C3CCC3)[C@H]2O)[C@](C)(OC)C[C@@H](C)C(=O)[C@H](C)[C@H]2N(CCc3ccc(F)c(Cl)c3)C(=O)O[C@]12C` [Example 19, 3',3'-N-Bisdesmethyl-3'-N-cyclobutyl-3'-N-cyclopropylmethyl-11-deoxy-11-[carboxy-(3-chloro-4-fluorophenethylamino)]-6-O-methyl-erythromycin A 11,12-(cyclic carbamate)] was tested, and the “pKI (receptor binding affinity)” value was 9.08.

Same assay, conditions: in vitro, read-out: pKI (receptor binding affinity) (converted)
For `CC[C@H]1OC(=O)[C@H](C)[C@@H](O[C@H]2C[C@@](C)(OC)[C@@H](O)[C@H](C)O2)[C@H](C)[C@@H](O[C@@H]2O[C@H](C)C[C@H](N(CC3CC3)CC3CC3)[C@H]2O)[C@](C)(OC)C[C@@H](C)C(=O)[C@H](C)[C@H]2N(CCc3ccc(Cl)c(Cl)c3)C(=O)O[C@]12C` [Example 1], the Ki was 18.6 nM. For `CC[C@H]1OC(=O)[C@H](C)[C@@H](O[C@H]2C[C@@](C)(OC)[C@@H](O)[C@H](C)O2)[C@H](C)[C@@H](O[C@@H]2O[C@H](C)C[C@H](N(CC3CC3)CC3CC3)[C@H]2O)[C@](C)(OC)C[C@@H](C)C(=O)[C@H](C)[C@H]2N(CCc3ccc(Cl)cc3)C(=O)O[C@]12C` [Example 3, 3',3'-N-Bisdesmethyl-3',3'-N-biscyclolpropylmethyl-11-deoxy-11-[carboxy-(4-chlorophenetlylamino)]-6-methyl-eryromycin A 11,12-(cyclic carbamate)], the Ki was 4.17 nM. With `CCCN(C(C)C)[C@H]1C[C@@H](C)O[C@@H](O[C@@H]2[C@@H](C)[C@H](O[C@H]3C[C@@](C)(OC)[C@@H](O)[C@H](C)O3)[C@@H](C)C(=O)O[C@H](CC)[C@@]3(C)OC(=O)N(CCc4ccc(Cl)cc4)[C@@H]3[C@@H](C)C(=O)[C@H](C)C[C@@]2(C)OC)[C@@H]1O` [Example 6, 3',3'-N-Bisdesmethyl-3'-N-isopropyl-3'-N-propyl-11-deoxy-11-[carboxy-(4-chlorophenethylamino)]-6-O-methyl-erythromycin A 11,12-(cyclic carbamate)] the Ki was 8.32 nM. `CC[C@H]1OC(=O)[C@H](C)[C@@H](O[C@H]2C[C@@](C)(OC)[C@@H](O)[C@H](C)O2)[C@H](C)[C@@H](O[C@@H]2O[C@H](C)C[C@H](N(CC)C(C)C)[C@H]2O)[C@](C)(OC)C[C@@H](C)C(=O)[C@H](C)[C@H]2N(CCc3ccc(Cl)cc3)C(=O)O[C@]12C` [Example 8, 3',3'-N-Bisdesmethyl-3'-N-ethyl-3'-N-isopropyl-11-deoxy-11-[carboxy-(4-chlorophenethylamino)]-6-O-methyl-erythromycin A 11,12-(cyclic carbamate)] was tested, and the Ki was 2.51 nM. For `CC[C@H]1OC(=O)[C@H](C)[C@@H](O[C@H]2C[C@@](C)(OC)[C@@H](O)[C@H](C)O2)[C@H](C)[C@@H](O[C@@H]2O[C@H](C)C[C@H](N(CC3CCC3)CC3CC3)[C@H]2O)[C@](C)(OC)C[C@@H](C)C(=O)[C@H](C)[C@H]2N(CCc3ccc(Cl)cc3)C(=O)O[C@]12C` [Example 9, 3',3'-N-Bisdesmethyl-3'-N-cyclobutylmethyl-3'-N-cyclopropylmethyl-11-deoxy-11-[carboxy-(4-chlorophenethylamino)]-6-methyl-erythromycin A 11,12-(cycliccarbamate)], the Ki was 6.31 nM. `CC[C@H]1OC(=O)[C@H](C)[C@@H](O[C@H]2C[C@@](C)(OC)[C@@H](O)[C@H](C)O2)[C@H](C)[C@@H](O[C@@H]2O[C@H](C)C[C@H](N(CC3CC3)CC3CC3)[C@H]2O)[C@](C)(OC)C[C@@H](C)C(=O)[C@H](C)[C@H]2N(CCc3ccc(OC)cc3)C(=O)O[C@]12C` [Example 10, 3',3'-N-Bisdesmethyl-3',3'-N-biscyclopropylmethyl-11-deoxy-11-[carboxy-(4-methoxyphenethylamino)]-6-O-methyl-erythromycin A 11,12-(cyclic carbamate)] was tested, and the Ki was 1.41 nM. Compound `CC[C@H]1OC(=O)[C@H](C)[C@@H](O[C@H]2C[C@@](C)(OC)[C@@H](O)[C@H](C)O2)[C@H](C)[C@@H](O[C@@H]2O[C@H](C)C[C@H](N(CC3CC3)CC3CC3)[C@H]2O)[C@](C)(OC)C[C@@H](C)C(=O)[C@H](C)[C@H]2N(CCc3ccc(F)cc3)C(=O)O[C@]12C` [Example 11, 3',3'-N-Bisdesmethyl-3',3'-N-biscyclopropylmethyl-11-deoxy-11-[carboxy-(4-fluorophenethylamino)]-6-O-methyl-erthromycin A 11,12-(cyclic carbamate)] has a Ki of 2.19 nM. Compound `CC[C@H]1OC(=O)[C@H](C)[C@@H](O[C@H]2C[C@@](C)(OC)[C@@H](O)[C@H](C)O2)[C@H](C)[C@@H](O[C@@H]2O[C@H](C)C[C@H](N(C3CCC3)C3CCC3)[C@H]2O)[C@](C)(OC)C[C@@H](C)C(=O)[C@H](C)[C@H]2N(CCc3ccc(Cl)c(F)c3)C(=O)O[C@]12C` [Example 12, 3',3'-N-Bisdesmethyl-3',3'-N-biscyclobutyl-11-deoxy-11-[carboxy-(4-chloro-3-fluorophenethylamino)]-O-methl-erythromycin A 11,12-(cyclic carbamate)] has a Ki of 1 nM. `CC[C@H]1OC(=O)[C@H](C)[C@@H](O[C@H]2C[C@@](C)(OC)[C@@H](O)[C@H](C)O2)[C@H](C)[C@@H](O[C@@H]2O[C@H](C)C[C@H](N(CC3CC3)CC3CC3)[C@H]2O)[C@](C)(OC)C[C@@H](C)C(=O)[C@H](C)[C@H]2N(CCc3ccc(F)c(Cl)c3)C(=O)O[C@]12C` [Example 15, 3',3'-N-Bisdesmethyl-3',3'-N-biscyclopropylmethyl-11-deoxy-11-[carboxy-(3-chloro-4-fluorophenetlamino)]-6-O-methyl-erythromycin A 11,12-(cyclic carbamate)] gave a Ki of 1.26 nM. In the case of `CC[C@H]1OC(=O)[C@H](C)[C@@H](O[C@H]2C[C@@](C)(OC)[C@@H](O)[C@H](C)O2)[C@H](C)[C@@H](O[C@@H]2O[C@H](C)C[C@H](N(CCCc3ccccn3)CCCc3ccccn3)[C@H]2O)[C@](C)(OC)C[C@@H](C)C(=O)[C@H](C)[C@H]2N(CCc3ccc(Cl)c(Cl)c3)C(=O)O[C@]12C` [Example 20, 3',3'-N-Bisdesmethyl-3',3'-N-bis-[3-(2-pyridyl)-propyl]-11-deoxy-11-[carboxy-(3,4-dichlorophenethylamino)]-6-O-methyl-erythromycin A 11,12-(cyclic carbamate)], the Ki is reported as 3.98 nM. Compound `CC[C@H]1OC(=O)[C@H](C)[C@@H](O[C@H]2C[C@@](C)(OC)[C@@H](O)[C@H](C)O2)[C@H](C)[C@@H](O[C@@H]2O[C@H](C)C[C@H](N(CCCc3ccncc3)CC3CC3)[C@H]2O)[C@](C)(OC)C[C@@H](C)C(=O)[C@H](C)[C@H]2N(CCc3ccc(Cl)c(Cl)c3)C(=O)O[C@]12C` [Example 22, 3',3'-N-Bisdesmethyl-3'-N-cyclopropylmethyl-3'-N-[3-(4-pyridyl)propyl]-11-deoxy-11-[carboxy-(3,4-dichlorophenethylamino)]-6-O-methyl-erythromycin A 11,12-(cyclic carbamate)] has a Ki of 1.91 nM.
